Measured values published in patent US9072728B2, “Treatment of severe distal colitis” (priority 2003, dated 2015).

Tests used:
[1] = system: human PMN transmigration across intestinal T84 cell monolayers; assay: PMN transmigration across intestinal T84 cell monolayers (in-vitro model of colitis); type: cell-based; conditions: for attenuation of PMN transepithelial migration: FIG. 2A, 2B
Source text: Recruitment of polymorphonuclear neutrophils (PMN's) across intestinal epithelia and into the lumen, resulting in mucosal ulcerations or frank crypt abscesses, occurs in a broad spectrum of infectious, inflammatory, and allergic diarrheal states, including patients with inflammation of surgically constructed ileal reservoirs (“pouchitis”). The transmigration of PMN's across the epithelial barrier represents the pathognomonic feature of acute and active chronic intestinal inflammation. Since CLT has been previously shown to inhibit PMN chemotaxis in-vitro, this study tested if CLT may also be efficacious in attenuating PMN transmigration in an established in-vitro model of colitis using intestinal T84 cell monolayers.
The efficacy of CLT was compared to other antibiotic (metronidazole) and steroid (prednisone) agents that currently represent the standards of care for the topical or systemic therapy of pouchitis. […] […] As such, topical CLT treatment represents an attractive alternative for patients whose pouchitis disease has proven to be refractory to standard antibiotic or anti-inflammatory regimens. CLT may inhibit PMN transmigration by inhibiting the operation of plasma membrane K^+ or Ca^++ channels that are likely required to accommodate the volume changes necessary for PMN transmigration through epithelial intercellular tight junctions.

[2] = system: IL-8 secretion from cultured intestinal (T84) epithelia; assay: IL-8 secretion from cultured intestinal epithelial T84 cells; type: cell-based; conditions: T84 cells 30 minutes with CLT (30 μM) prior to stimulation with PMA, TNF or Salmonella typhimurium; each agonist; FIG. 3
Experimental: Intestinal epithelial cells play an active role in the mediation of intestinal inflammation through the production and regulated secretion of a variety of pro-inflammatory cytokines including IL-8. […] In these experiments, cultured intestinal epithelial T84 cells were incubated for 30 minutes with CLT (30 μM) prior to stimulation with either the protein kinase C stimulator PMA, the pro-inflammatory cytokine TNF, or a strain of pathogenic Salmonella typhimurium.

[3] = Serum CLT levels after rectal CLT suppositories (HPLC assay); type: in vivo, human
Experimental: (§1) The safety and efficacy of topical CLT therapy was also evaluated (delivered as a rectal suppository) in pediatric and adult patients with active pouchitis. In this study, subjects progressed through three escalating dosing levels: Step A (500 mg rectal suppositories applied twice daily); Step B (750 mg rectal suppositories applied twice daily); Step C (1,500 mg delivered twice daily). Serum levels (measured using a previously validated HPLC assay) were obtained within 3 to 6 hours after administering the morning (8 AM) dose of CLT and are presented in Table 2.

[4] = system: pediatric and adult patients with active pouchitis; assay: Safety and clinical outcome of rectal CLT suppositories, open-labeled dose escalating trial; type: in vivo, human
Experimental: as §1
Rectal CLT delivered as a suppository, toxicity.
(§2) In this study, subjects were treated with escalating doses of study drug: Step A (500 mg rectal suppositories applied twice daily); Step B (750 mg rectal suppositories applied twice daily); Step C (1,500 mg delivered twice daily). Few parameters were measured including fecal lactoferrin, a marker of white blood cell excretion, to assess the effects of topical CLT therapy on PMN transmigration in patients with pouchitis. This assay has been previously validated as a quantitative biochemical measure of PMN transmigration in patients with infectious colitis and inflammatory bowel disease.

[5] = system: fecal lactoferrin, a marker of white blood cell excretion (PMN transmigration); assay: Fecal lactoferrin in pouchitis patients treated with CLT suppositories; type: in vivo, human; conditions: in 6 of 8 subjects studied; rectal suppository
Experimental: as §2

[6] = system: IL-8 secretion in Calu-3 cells; assay: IL-8 in basolateral supernatants of Calu-3 cells (ELISA); type: cell-based; conditions: for inhibition of secreted IL-8: Calu-3 cells stimulated with Salmonella, 30 μM test compound, 5 hours, FIG. 4
Experimental: Calu-3 cells were plated at subconfluency onto Costar inserts (3.0 μm membrane pore size) using standard techniques. After 24 hours, the apical well media was aspirated, and the Calu-3 cells were permitted to grow at the air/media interface. Basolateral media was changed every 2-3 days until they had grown into confluent monolayers (typically 7-10 days). Pathogenic Salmonella typhi were grown in Luria's both overnight at 37° C. (on the night prior to experimentation). The bacteria were washed twice in approximately 20 ml Hanks Balanced Salt Solution (HBSS). Prior to use, bacteria were spun down and resuspended in a total of 10 ml HBSS.
On the day of experimentation, inserts were washed in HBSS and placed into wells containing HBSS with either vehicle (0.0015% ethanol) or 30 μM of specific imidazole or non-imidazole containing test compound (all compounds were diluted from 20 mM working stock). 200 μL of bacteria were then loaded onto the apical compartment, and the cells were allowed to incubate for 5 hours. The basolateral buffer solutions from each insert were subsequently aspirated into eppendorfs and stored at −20° C. Calu-3 filters were cut and rotated for 30 minutes in 250 μL of lysis buffer [10 mL of PBS containing 1 Complete Protease Inhibitor Cocktail Tablet (Roche Pharmaceuticals) tablet and […]] at 4° C., spun at 14,000 for 20 minutes, and the clarified supernatant was stored at −20° C. Supernatant and lysate IL-8 protein content was measured by ELISA using standard techniques.

IL-8 within Calu-3 cells = assay: IL-8 in Calu-3 cell lysates (ELISA); type: cell-based; conditions: FIG. 5
[7] = Safety laboratory data for CLT retention enemas; type: in vivo, human; conditions: change from baseline; retention enemas daily 3500-4000 mg; n=9
Experimental: In addition to efficacy data, safety data was also gathered for the use of CLT in retention enemas administered daily in a dose of 3500-4000 mg in the same group of patients. The following parameters were measured: urea nitrogen, Creatinine, aspartate aminotransferase (AST or SGOT), alanine aminotransferase (ALT or SGPT), alkaline phosphatase (Alk Phos), Total Bilirubin, Direct Bilirubin, Albumin, and Hematocrit.

[8] = cited from earlier work
[9] = oral CLT; mice, rats, and rabbits; cited from earlier work
[10] = oral CLT, experimental animals; cited from earlier work
[11] = oral CLT 60-90 mg/Kg body weight/day; cited from earlier work
[12] = cited from earlier work; remark: listed apart in the source
[13] = cited from earlier work; remark: listed apart in the source
[14] = PMN's and T84 cells incubated with 30 μM of study drug for 30 minutes
[15] = after application of one vaginal tablet

Clc1ccccc1C(c1ccccc1)(c1ccccc1)n1ccnc1 [CLT, clotrimazole]
attenuation of PMN transepithelial migration [1, 14]: more potent | inhibition of transepithelial migration ([1]; incubation of T84 monolayers alone with CLT, prior to layering of untreated PMN's, compared with PMN pretreatment, FIG. 1): equal or greater extent | PMN transmigration ([1]; pretreatment of PMN's alone with CLT (30 μM) for 30 minutes, FIG. 1): inhibited significantly | IL-8 secretion [2]: inhibited completely | Serum CLT levels, Step A ([3]; 500 mg rectal suppositories twice daily, 3 to 6 hours after morning dose, one line per subject): below the level of detection | systemic absorption from ileal pouches (measured as serum CLT concentration) ([3]; rectal suppository): generally poor systemic absorption | serum CLT level at the time of renal diagnosis ([3]; subject two, CLT suppositories): 0.08 µM | adverse effect of CLT therapy ([4]; subject one): no significant adverse effect | changes in urinary sediment or serum BUN or creatinine values ([4]; subjects other than ZP): No other subjects participating in the study demonstrated any significant changes | tolerability ([4]; topical CLT delivered as a rectal suppository, pediatric and adult patients): generally well tolerated | reduction of PMN excretion (fecal lactoferrin) [5]: 77% | inhibition of secreted IL-8 [6]: High level of IL-8 inhibition | IL-8 in supernatants, time-course ([6]; at 5 hours, Calu-3 cells pretreated, FIGS. 6 and 7): no IL-8 in the supernatants | effect on intracellular IL-8 (IL-8 within Calu-3 cells; PMA stimulation): no effect | decrease in IL-8 in Calu-3 cell lysates (IL-8 within Calu-3 cells; Salmonella stimulation, 30 μM test compound, 5 hours): virtually no decrease | ALBUMIN, Change, MAX [7]: 1.1 G/DI | ALBUMIN, Change, MEAN [7]: 0.1 G/DI | ALBUMIN, Change, MEDIAN [7]: 0.0 G/DI | ALBUMIN, Change, MIN [7]: −0.4 G/DI | ALKALINE PHOSPHATASE, Change, MAX [7]: 37.0 U/L | ALKALINE PHOSPHATASE, Change, MEAN [7]: −2.4 U/L | ALKALINE PHOSPHATASE, Change, MEDIAN [7]: 1.0 U/L | ALKALINE PHOSPHATASE, Change, MIN [7]: −60.0 U/L | CREATININE, Change, MAX [7]: 0.1 mg/dL | CREATININE, Change, MEAN [7]: -0.0 mg/dL | CREATININE, Change, MEDIAN [7]: -0.1 mg/dL | CREATININE, Change, MIN [7]: -0.2 mg/dL | DIRECT BILIRUBIN, Change, MAX [7]: 0.1 mg/dL | DIRECT BILIRUBIN, Change, MEAN [7]: -0.0 mg/dL | DIRECT BILIRUBIN, Change, MEDIAN [7]: 0.0 mg/dL | DIRECT BILIRUBIN, Change, MIN [7]: -0.1 mg/dL | HEMATOCRIT, Change, MAX [7]: 5.9% | HEMATOCRIT, Change, MEAN [7]: −0.5% | HEMATOCRIT, Change, MEDIAN [7]: 0.5% | HEMATOCRIT, Change, MIN [7]: −4.7% | SGOT (AST), Change, MAX [7]: 8.0 U/L | SGOT (AST), Change, MEAN [7]: −2.2 U/L | SGOT (AST), Change, MEDIAN [7]: −1.0 U/L | SGOT (AST), Change, MIN [7]: −16.0 U/L | SGPT (ALT), Change, MAX [7]: 8.0 U/L | SGPT (ALT), Change, MEAN [7]: 0.9 U/L | SGPT (ALT), Change, MEDIAN [7]: 0.0 U/L | SGPT (ALT), Change, MIN [7]: −6.0 U/L | TOTAL BILIRUBIN, Change, MAX [7]: 0.2 mg/dL | TOTAL BILIRUBIN, Change, MEAN [7]: -0.0 mg/dL | TOTAL BILIRUBIN, Change, MEDIAN [7]: 0.0 mg/dL | TOTAL BILIRUBIN, Change, MIN [7]: -0.5 mg/dL | UREA NITROGEN (BUN), Change, MAX [7]: 4.0 mg/dL | UREA NITROGEN (BUN), Change, MEAN [7]: 0.1 mg/dL | UREA NITROGEN (BUN), Change, MEDIAN [7]: 0.0 mg/dL | UREA NITROGEN (BUN), Change, MIN [7]: -5.0 mg/dL | serum levels ([8]; adults, oral dose of 200 mg of CLT): 200 to 350 ng/mL | drug excreted unchanged in the urine ([8]; oral CLT): only a small fraction | route of elimination ([8]; oral CLT): largely in the feces via biliary excretion | blood levels in oil solvent relative to tablet forms ([8]; oral, drug delivered in an oil solvent vs tablet): 3-4 times higher | LD50 [9]: 700-1,000 mg/Kg | subacute and chronic toxicity, organs involved [10]: liver (degenerative changes) and the adrenal gland (increased fat deposition) | time to reversal of liver and adrenal changes after discontinuation of therapy [10]: ≤ 6 months | patients reporting gastrointestinal complaints (nausea, vomiting, and diarrhea) [11]: 13% | patients who developed chemical cystitis [11]: 4.4% | patients who developed contact dermatitis [11]: 2.2% | patients who found the therapy intolerable [11]: 6.5% | patients who tolerated CLT therapy moderately well [11]: 18.5% | patients who tolerated CLT therapy well [11]: 64% | serum CLT levels on continued therapy ([12]; after one week of continued daily therapy with oral tablets): seemed to decline | adverse effect after first dose ([12]; normal volunteers, oral CLT in oil form, first dose of 1,000 mg): severe vertigo | time to disappearance of all neurological symptoms after discontinuing CLT therapy ([12]; normal volunteers, oral CLT in oil form): ≤ 24 hours | side effects of mucosal preparations ([13]; 1% vaginal cream, 100 mg and 500 mg tablets): minimal side effects | concurrent plasma levels [13, 15]: lower than 0.01 μg/ml | time fungicidal concentrations of CLT detected in vaginal fluid [13, 15]: up to 3 days | central nervous system abnormalities ([13]; topical application of CLT): No central nervous system abnormalities

OC(Cn1cncn1)(Cn1cncn1)c1ccc(F)cc1F [fluconazole]
inhibition of secreted IL-8 [6]: Considerably less inhibition

c1c[nH]cn1 [imidazole]
inhibition of secreted IL-8 [6]: Considerably less inhibition

CCC(C)n1ncn(-c2ccc(N3CCN(c4ccc(OCC5COC(Cn6cncn6)(c6ccc(Cl)cc6Cl)O5)cc4)CC3)cc2)c1=O (stereo not shown) [itraconazole]
inhibition of secreted IL-8 [6]: No inhibition

Cc1ncc([N+](=O)[O-])n1CCO [metronidazole]
inhibition of PMN transmigration ([1]; PMN's and T84 cells incubated with 30 μM of study drug for 30 minutes, FIG. 2B): 30-40%

C[C@]12C=CC(=O)C=C1CC[C@@H]1[C@@H]2C(=O)C[C@@]2(C)[C@H]1CC[C@]2(O)C(=O)CO [prednisone]
attenuation of PMN transepithelial migration [1, 14]: no attenuation
